According to ChEMBL document CHEMBL4619763 (J Nat Prod, 2020):
Active and inactive are the calls of the source. No cut-off for these calls is given here.

Columns and labels:
Rattus norvegicus [1] = test: Diuretic activity in normotensive Wistar rat assessed as urine pH at 0.01 mg/kg, ip after 8 hrs (reference value: 6.05 +/- 0.22); assay type: functional
Rattus norvegicus [2] = test: Diuretic activity in normotensive Wistar rat assessed as urine conductivity at 0.01 mg/kg, po administered via gavage after 8 hrs (reference value: 19.54 +/- 0.98 mS/cm); assay type: functional
Rattus norvegicus [3] = test: Diuretic activity in normotensive Wistar rat assessed as urine conductivity at 0.1 mg/kg, po administered via gavage after 8 hrs (reference value: 19.54 +/- 0.98 mS/cm); assay type: functional
Rattus norvegicus [4] = test: Diuretic activity in normotensive Wistar rat assessed as urine conductivity at 1 mg/kg, ip after 8 hrs (reference value: 24.87 +/- 0.54 mS/cm); assay type: functional
Rattus norvegicus [5] = test: Diuretic activity in normotensive Wistar rat assessed as urinary sodium excretion at 0.01 mg/kg, ip after 8 hrs (reference value: 81.56 +/- 13.10 mmol/L); assay type: functional
Rattus norvegicus [6] = test: Diuretic activity in normotensive Wistar rat assessed as urinary sodium excretion at 0.1 mg/kg, ip after 8 hrs (reference value: 81.56 +/- 13.10 mmol/L); assay type: functional
Rattus norvegicus [7] = test: Diuretic activity in normotensive Wistar rat assessed as urinary sodium excretion at 1 mg/kg, ip after 8 hrs (reference value: 81.56 +/- 13.10 mmol/L); assay type: functional
Rattus norvegicus [8] = test: Diuretic activity in normotensive Wistar rat assessed as urinary potassium excretion at 1 mg/kg, ip […] after 8 hrs (reference value: 22.33 +/- 2.81 mmol/L); assay type: ADME, organism-based; details: in vivo
Rattus norvegicus [9] = test: Diuretic activity in normotensive Wistar rat assessed as urinary chloride excretion at 1 mg/kg, po administered via gavage after 8 hrs (reference value: 135.10 to 143.70 mmol/L); assay type: functional
Rattus norvegicus [10] = test: Diuretic activity in normotensive Wistar rat assessed as urinary chloride excretion at 0.01 mg/kg, ip […] after 8 hrs (reference value: 103.30 +/- 10.25 mmol/L); assay type: functional
Rattus norvegicus [11] = test: Diuretic activity in normotensive Wistar rat assessed as urine pH at 0.1 mg/kg, po administered via gavage after 8 hrs in presence of atropine (reference value: 6.14 to 6.21); assay type: functional
Rattus norvegicus [12] = test: Diuretic activity in normotensive Wistar rat assessed as urinary sodium excretion at 0.1 mg/kg, po administered via gavage after 8 hrs in presence of indomethacin (reference value: 61.82 to 80.81 mmol/L); assay type: functional
Rattus norvegicus [13] = test: Diuretic activity in normotensive Wistar rat assessed as urinary potassium excretion at 0.1 mg/kg, po administered via gavage after 8 hrs in presence of indomethacin (reference value: 22.39 to 24.21 mmol/L); assay type: ADME, organism-based; details: in vivo
Rattus norvegicus [14] = test: Diuretic activity in normotensive Wistar rat assessed as urinary potassium excretion at 0.1 mg/kg, po administered via gavage after 8 hrs in presence of atropine (reference value: 22.39 to 24.21 mmol/L); assay type: ADME, organism-based; details: in vivo
Rattus norvegicus [15] = test: Diuretic activity in normotensive Wistar rat assessed as urinary chloride excretion at 0.1 mg/kg, po administered via gavage after 8 hrs in presence of amiloride (reference value: 135.10 to 143.70 mmol/L); assay type: functional
Rattus norvegicus [16] = test: Diuretic activity in normotensive Wistar rat assessed as urinary calcium excretion at 0.1 mg/kg, po administered via gavage after 8 hrs in presence of indomethacin (reference value: 5.93 to 6.87 mg/dl); assay type: functional
Rattus norvegicus [17] = test: Diuretic activity in normotensive Wistar rat assessed as urinary calcium excretion at 0.1 mg/kg, po administered via gavage after 8 hrs in presence of atropine (reference value: 5.93 to 6.87 mg/dl); assay type: functional
Rattus norvegicus [18] = test: Diuretic activity in normotensive Wistar rat assessed as urinary calcium excretion at 0.1 mg/kg, po administered via gavage after 8 hrs in presence of L-NAME (reference value: 5.93 to 6.87 mg/dl); assay type: functional
Rattus norvegicus [19] = test: Diuretic activity in normotensive Wistar rat assessed as decrease in urinary calcium excretion at 0.1 mg/kg, po administered via gavage for 7 days; assay type: functional, organism-based
Rattus norvegicus [20] = test: Diuretic activity in spontaneous hypertensive Wistar rat assessed as increase in urinary chloride excretion at 0.1 mg/kg, po administered via gavage for 7 days; assay type: functional, organism-based
[21] = Toxicity in spontaneous hypertensive Wistar rat assessed as changes in plasma sodium level at 0.1 mg/kg, po administered for 7 days; assay type: organism-based; details: in vivo, 168 h
[22] = Toxicity in normotensive Wistar rat assessed as changes in plasma potassium level at 0.1 mg/kg, po administered for 7 days; assay type: organism-based; details: in vivo, 168 h
[23] = Toxicity in spontaneous hypertensive Wistar rat assessed as changes in plasma potassium level at 0.1 mg/kg, po administered for 7 days; assay type: organism-based; details: in vivo, 168 h
[24] = Toxicity in spontaneous hypertensive Wistar rat assessed as changes in plasma calcium level at 0.1 mg/kg, po administered for 7 days; assay type: organism-based; details: in vivo, 168 h
[25] = Toxicity in normotensive Wistar rat assessed as changes in plasma AST level at 0.1 mg/kg, po administered for 7 days; assay type: organism-based; details: in vivo, 168 h
[26] = Toxicity in spontaneous hypertensive Wistar rat assessed as changes in plasma AST level at 0.1 mg/kg, po administered for 7 days; assay type: organism-based; details: in vivo, 168 h
[27] = Toxicity in spontaneous hypertensive Wistar rat assessed as changes in plasma uric acid level at 0.1 mg/kg, po administered for 7 days; assay type: organism-based; details: in vivo, 168 h
[28] = Toxicity in spontaneous hypertensive Wistar rat assessed as changes in plasma nitrite acid level at 0.1 mg/kg, po administered for 7 days; assay type: organism-based; details: in vivo, 168 h
[29] = Toxicity in normotensive Wistar rat assessed as changes in urinary creatinine at 0.1 mg/kg, po administered for 7 days; assay type: organism-based; details: in vivo, 168 h
Rattus norvegicus [30] = test: In vivo antioxidant activity in Wistar rat model of hypertension-induced oxidative stress assessed as reduction in reactive oxygen species generation in renal tissue at 0.1 mg/kg, po administered via gavage for 7 days by DCFH-DA probe based fluorimetric assay; assay type: functional, organism-based
Rattus norvegicus [31] = test: Renal protective activity in spontaneous hypertensive Wistar rat assessed as reduction in hypertension-induced glomerular size at 0.1 mg/kg, po administered via gavage for 7 days by hematoxylin and eosin staining based microscopic analysis; assay type: functional, organism-based
Rattus norvegicus [32] = test: Renal protective activity in spontaneous hypertensive Wistar rat assessed as reduction in hypertension-induced mesangial space disarrangement at 0.1 mg/kg, po administered via gavage for 7 days by hematoxylin and eosin staining based microscopic analysis; assay type: functional, organism-based
Rattus norvegicus [33] = test: Anti-urolithic activity in spontaneous hypertensive Wistar rats assessed as reduction in CaOx crystal formation in cumulative urine at 0.1 mg/kg, po administered via gavage in presence of sodium oxalate by Neubauer counting chamber method relative to control; assay type: functional; parameters: scale not given: the % may be the effect or the level left
[34] = Anti-urolithic activity in synthetic urine assessed as reduction in CaOx crystal formation at 0.01 mg/mL in presence of sodium oxalate after 60 mins by Neubauer counting chamber method relative to control; assay type: functional; parameters: scale not given: the % may be the effect or the level left
[35] = Anti-urolithic activity in synthetic urine assessed as reduction in CaOx crystal formation at 0.1 mg/mL in presence of sodium oxalate after 60 mins by Neubauer counting chamber method relative to control; assay type: functional; parameters: scale not given: the % may be the effect or the level left
[36] = Anti-urolithic activity in synthetic urine assessed as decrease in absorbance at 0.1 mg/mL after 60 mins relative to control; assay type: functional; parameters: scale not given: the % may be the effect or the level left

In the case of `C[C@@H]1O[C@@H](Oc2c(-c3ccc(O)cc3)oc3cc(O)cc(O)c3c2=O)[C@H](O)[C@H](O)[C@H]1O` [AFZELIN], the pH (Rattus norvegicus [1]) is reported as 5.82, the Activity (Rattus norvegicus [2]) is reported as 22.17 mS/cm and the Activity (Rattus norvegicus [3]) is reported as 17.05 - 18.31 mS/cm. It also gave an Activity (Rattus norvegicus [4]) of 24.92 mS/cm, an Activity (Rattus norvegicus [5]) of 51.84 mmol/L and an Activity (Rattus norvegicus [6]) of 40.93 mmol/L. For the same compound, the Activity (Rattus norvegicus [7]) was 62.46 mmol/L, the Activity (Rattus norvegicus [8]) was 14.41 mmol/L and the Activity (Rattus norvegicus [9]) was 165.2 mmol/L. The Activity (Rattus norvegicus [10]) was 96.18 mmol/L, the pH (Rattus norvegicus [11]) was 6.14 and the Activity (Rattus norvegicus [12]) was 81.55 mmol/L. For the same compound, the Activity (Rattus norvegicus [13]) was 17.87 mmol/L, the Activity (Rattus norvegicus [14]) was 16.83 mmol/L and the Activity (Rattus norvegicus [15]) was 161.1 mmol/L. The Activity (Rattus norvegicus [16]) was 4.82 mg/dL, the Activity (Rattus norvegicus [17]) was 4.69 mg/dL and the Activity (Rattus norvegicus [18]) was 4.82 mg/dL. For the same compound, the Activity (Rattus norvegicus [19]) was “Active”, the Activity (Rattus norvegicus [20]) was “Active” and the Activity [21] was “Non-Toxic”. The Activity [22] was “Non-Toxic”, the Activity [23] was “Non-Toxic” and the Activity [24] was “Non-Toxic”. For the same compound, the Activity [25] was “Non-Toxic”, the Activity [26] was “Non-Toxic” and the Activity [27] was “Non-Toxic”. The Activity [28] was “Non-Toxic”, the Activity [29] was “Non-Toxic” and the Activity (Rattus norvegicus [30]) was “Active”. For the same compound, the Activity (Rattus norvegicus [31]) was “Active”, the Activity (Rattus norvegicus [32]) was “Active” and the Activity (Rattus norvegicus [33]) was 92.53%. The Activity [34] was 57.47%, the Activity [35] was 48.88% and the Activity [36] was 27.21%.
